According to PubChem BioAssay (NCI):
Values joined by “and” are separate entries in the source; they are usually repeats but may differ in a detail not shown here. Equal values may be shown once.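 Each compound was tested at five concentrations against cells in 96-well plates for 48 hours. The concentration for 50% growth inhibition is given as GI50. TGI: total growth inhibition.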

Experiments:
Assay in all cases: growth of human tumour cells (NCI), 48 h
EKVX NSCLC = test system: EKVX NSCLC
NCI/ADR-RES ovarian = test system: NCI/ADR-RES ovarian
U251 CNS = test system: U251 CNS
SNB-19 CNS = test system: SNB-19 CNS
DU-145 prostate = test system: DU-145 prostate
A498 renal = test system: A498 renal
KM20L2 colon = test system: KM20L2 colon
SN12C renal = test system: SN12C renal
RXF 393 renal = test system: RXF 393 renal
MDA-N = test system: MDA-N
IGROV1 ovarian = test system: IGROV1 ovarian
OVCAR-8 ovarian = test system: OVCAR-8 ovarian
LOX IMVI melanoma = test system: LOX IMVI melanoma
K-562 leukemia = test system: K-562 leukemia
NCI-H522 lung = test system: NCI-H522 lung
M14 melanoma = test system: M14 melanoma
SF-295 CNS = test system: SF-295 CNS
A549 NSCLC = test system: A549 NSCLC
OVCAR-5 ovarian = test system: OVCAR-5 ovarian
LXFL 529 NSCLC = test system: LXFL 529 NSCLC
DMS 273 small cell lung = test system: DMS 273 small cell lung
NCI-H226 lung = test system: NCI-H226 lung
SR leukemia = test system: SR leukemia
RPMI-8226 leukemia = test system: RPMI-8226 leukemia
PC-3 prostate = test system: PC-3 prostate
786-0 renal = test system: 786-0 renal
NCI-H23 lung = test system: NCI-H23 lung
BT-549 breast = test system: BT-549 breast
HT29 colon = test system: HT29 colon
OVCAR-4 ovarian = test system: OVCAR-4 ovarian
SK-MEL-28 melanoma = test system: SK-MEL-28 melanoma
UACC-62 melanoma = test system: UACC-62 melanoma
HCC-2998 colon = test system: HCC-2998 colon
MDA-MB-231 breast = test system: MDA-MB-231 breast
SW-620 colon = test system: SW-620 colon
SF-539 CNS = test system: SF-539 CNS
HOP-92 NSCLC = test system: HOP-92 NSCLC
MOLT-4 leukemia = test system: MOLT-4 leukemia
HS 578T breast = test system: HS 578T breast
MALME-3M melanoma = test system: MALME-3M melanoma
DLD-1 colon = test system: DLD-1 colon
NCI-H460 lung = test system: NCI-H460 lung
HCT-15 colon = test system: HCT-15 colon
COLO 205 colon = test system: COLO 205 colon
DMS 114 small cell lung = test system: DMS 114 small cell lung
HCT-116 colon = test system: HCT-116 colon
HOP-18 NSCLC = test system: HOP-18 NSCLC
UO-31 renal = test system: UO-31 renal
SF-268 CNS = test system: SF-268 CNS
CAKI-1 renal = test system: CAKI-1 renal
KM12 colon = test system: KM12 colon
MCF7 breast = test system: MCF7 breast
UACC-257 melanoma = test system: UACC-257 melanoma
T-47D breast = test system: T-47D breast
HOP-62 NSCLC = test system: HOP-62 NSCLC
OVCAR-3 ovarian = test system: OVCAR-3 ovarian
ACHN renal = test system: ACHN renal
TK-10 renal = test system: TK-10 renal
MDA-MB-435 = test system: MDA-MB-435
SK-OV-3 ovarian = test system: SK-OV-3 ovarian
SNB-75 CNS = test system: SNB-75 CNS
SK-MEL-2 melanoma = test system: SK-MEL-2 melanoma
SK-MEL-5 melanoma = test system: SK-MEL-5 melanoma
CCRF-CEM leukemia = test system: CCRF-CEM leukemia

CN1CCN(CN2C(=O)C3C4C=CC(C3C2=O)C2C3C(=O)N(CN5CCN(C)CC5)C(=O)C3C42)CC1 (stereo not drawn) gave a GI50 (EKVX NSCLC) of over 100 µM, a TGI (EKVX NSCLC) of over 100 µM and a TGI (NCI/ADR-RES ovarian) of 64.5 µM. For the same molecule, the TGI (U251 CNS) was 38.3 µM and 37.2 µM and 33 µM, the GI50 (SNB-19 CNS) was 31.7 µM and 53.2 µM and 76.9 µM and the TGI (SNB-19 CNS) was over 100 µM. The TGI (DU-145 prostate) was 77.2 µM, the TGI (A498 renal) was > 100 µM and 97.9 µM and the TGI (KM20L2 colon) was 56.8 µM and 40.9 µM and 63.4 µM. For the same molecule, the TGI (SN12C renal) was 43.7 µM and 41.9 µM and 52.8 µM, the TGI (RXF 393 renal) was 41.4 µM and 34.7 µM and 36.2 µM and the TGI (MDA-N) was 32.5 µM. The TGI (IGROV1 ovarian) was over 100 µM, the TGI (OVCAR-8 ovarian) was 35.7 µM and > 65.3 µM and 59.9 µM and the TGI (LOX IMVI melanoma) was 35.5 µM and 37.4 µM and 33.8 µM. The TGI (K-562 leukemia) was 81.4 µM and 55.6 µM and 58.2 µM, the TGI (NCI-H522 lung) was 39.6 µM and 25.4 µM and the TGI (M14 melanoma) was 30.8 µM and 34.2 µM and 40.8 µM. The GI50 (SF-295 CNS) was 32.2 µM and 86.2 µM and 49.2 µM, the TGI (SF-295 CNS) was 97.4 µM and > 100 µM and the TGI (A549 NSCLC) was 90.5 µM and 57.5 µM and 36.2 µM. For the same molecule, the TGI (OVCAR-5 ovarian) was over 100 µM, the TGI (LXFL 529 NSCLC) was 35.9 µM and 32.7 µM and 57.3 µM and the TGI (DMS 273 small cell lung) was 39.4 µM and 30.9 µM and 10.6 µM. The GI50 (NCI-H226 lung) was 33.5 µM and > 57.7 µM and 76.8 µM, the TGI (NCI-H226 lung) was over 100 µM and the TGI (SR leukemia) was 41.6 µM and 36.2 µM. The TGI (RPMI-8226 leukemia) was 59.2 µM and 53.2 µM and 71.5 µM, the TGI (PC-3 prostate) was 97.9 µM and the TGI (786-0 renal) was 34.3 µM and 40.3 µM and 36 µM. The TGI (NCI-H23 lung) was 43.9 µM and 39.6 µM and 75.2 µM, the TGI (BT-549 breast) was 69.6 µM and the TGI (HT29 colon) was over 100 µM. The TGI (OVCAR-4 ovarian) was 38.4 µM and 45.1 µM and 53.5 µM, the TGI (SK-MEL-28 melanoma) was 49.3 µM and > 61.8 µM and 35.3 µM and the TGI (UACC-62 melanoma) was 43.3 µM and 37.1 µM and 58.7 µM. The TGI (HCC-2998 colon) was 89.2 µM and 51.5 µM and 79 µM, the TGI (MDA-MB-231 breast) was 56.8 µM and the TGI (SW-620 colon) was 43.2 µM and > 60.8 µM and 35.1 µM. For the same molecule, the TGI (SF-539 CNS) was 44.4 µM and 45.4 µM and 49.1 µM, the GI50 (HOP-92 NSCLC) was 35.7 µM and > 96.5 µM and > 100 µM and the TGI (HOP-92 NSCLC) was 94.8 µM and > 100 µM. For the same molecule, the TGI (MOLT-4 leukemia) was 60.6 µM and 51.3 µM and 55.9 µM, the TGI (HS 578T breast) was over 100 µM and the TGI (MALME-3M melanoma) was 34.2 µM. The TGI (DLD-1 colon) was 49.7 µM and 41 µM and 52.4 µM, the TGI (NCI-H460 lung) was 32.3 µM and 37.9 µM and 27.3 µM and the TGI (HCT-15 colon) was 34.8 µM and 42.1 µM and 30.3 µM. For the same molecule, the TGI (COLO 205 colon) was 33.2 µM and 34.5 µM and 35.3 µM, the TGI (DMS 114 small cell lung) was 36.8 µM and 37.7 µM and 35.5 µM and the TGI (HCT-116 colon) was 33.4 µM and 36.4 µM and 27.3 µM. The GI50 (HOP-18 NSCLC) was 34.4 µM and 13 µM and 48.6 µM, the TGI (HOP-18 NSCLC) was 71 µM and 34.4 µM and > 100 µM and the TGI (UO-31 renal) was 76.8 µM and > 67.8 µM and > 100 µM. For the same molecule, the TGI (SF-268 CNS) was 50.6 µM and > 62.6 µM and 33.9 µM, the GI50 (CAKI-1 renal) was 44.8 µM and 33.6 µM and 70.6 µM and the TGI (CAKI-1 renal) was over 100 µM. For the same molecule, the TGI (KM12 colon) was 41.7 µM and 51.9 µM and > 100 µM, the TGI (MCF7 breast) was over 100 µM and the GI50 (UACC-257 melanoma) was 35.7 µM and 25 µM and 62.2 µM. The TGI (UACC-257 melanoma) was 84.4 µM and 54.3 µM and > 100 µM, the TGI (T-47D breast) was over 100 µM and the TGI (HOP-62 NSCLC) was over 100 µM. The TGI (OVCAR-3 ovarian) was 48.2 µM and 57.6 µM and 75.5 µM, the TGI (ACHN renal) was 73.6 µM and > 61.3 µM and 48.5 µM and the TGI (TK-10 renal) was over 100 µM. The TGI (MDA-MB-435) was 31.3 µM, the GI50 (SK-OV-3 ovarian) was 37.4 µM and 34.1 µM and 80.1 µM and the TGI (SK-OV-3 ovarian) was over 100 µM. The TGI (SNB-75 CNS) was 79.8 µM and 72.9 µM and 92.1 µM, the TGI (SK-MEL-2 melanoma) was 40 µM and 35.6 µM and 30 µM and the TGI (SK-MEL-5 melanoma) was 31 µM and > 58.5 µM and 68.7 µM. The TGI (CCRF-CEM leukemia) was 65.3 µM and 42 µM and 48.3 µM.
